Results published in patent US8779001B2, “Stat3 inhibitors” (The United States of America National Institute of Health …, priority 2008, dated 2014).

Legend:
Stat1 = biological target: T1, Stat1 (Homo sapiens, UniProt P42224); test: Immunoblot assay of IFN-γ-stimulated Stat1 phosphorylation in HepG2 cells; format: cell-based; conditions: HepG2, compound 300 μM, 1 hour, IFN-γ 30 ng/ml 30 min
T1 construct: endogenous in cells; host or cells: HepG2
T1 sequence (P42224 1-750): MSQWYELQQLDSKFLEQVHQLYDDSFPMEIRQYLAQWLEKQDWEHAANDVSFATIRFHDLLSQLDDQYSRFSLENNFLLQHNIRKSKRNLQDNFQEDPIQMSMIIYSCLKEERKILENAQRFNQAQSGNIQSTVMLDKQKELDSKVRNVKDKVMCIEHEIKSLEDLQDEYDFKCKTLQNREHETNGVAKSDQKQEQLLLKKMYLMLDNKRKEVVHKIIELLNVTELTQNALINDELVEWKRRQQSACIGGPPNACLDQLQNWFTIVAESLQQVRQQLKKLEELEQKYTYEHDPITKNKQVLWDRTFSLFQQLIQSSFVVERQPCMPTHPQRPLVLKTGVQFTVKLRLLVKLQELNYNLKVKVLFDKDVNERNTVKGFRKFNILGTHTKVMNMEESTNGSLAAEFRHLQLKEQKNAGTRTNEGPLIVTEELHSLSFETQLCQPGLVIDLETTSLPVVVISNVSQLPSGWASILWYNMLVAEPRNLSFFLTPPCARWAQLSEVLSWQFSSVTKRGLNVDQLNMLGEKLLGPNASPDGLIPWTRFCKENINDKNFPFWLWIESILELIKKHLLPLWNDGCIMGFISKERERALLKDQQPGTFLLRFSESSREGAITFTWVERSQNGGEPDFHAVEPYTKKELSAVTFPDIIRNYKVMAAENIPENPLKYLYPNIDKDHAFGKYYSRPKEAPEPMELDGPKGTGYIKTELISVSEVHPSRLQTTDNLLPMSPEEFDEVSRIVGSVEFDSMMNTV
Experimental: HepG2 cells were pretreated with DMSO alone or DMSO containing each of the compounds at a concentration of 300 μM for 60 min. Cells were then stimulated with IFN-γ (30 ng/ml) for 30 min. Protein extracts of cells were separated by SDS-PAGE and immunoblotted serially with antibodies to pStat1, total Stat1 and β-actin. Blots were stripped between each immunoblotting. The results shown are representative of 2 or more experiments.
Immunoblot assay. The human hepatocellular carcinoma cell line (HepG2) was grown in 6-well plates under standard conditions. Cells were pretreated with compounds (0, 1, 3, 10, 30, 100 and 300 uM) for 1 hour then stimulated under optimal conditions with either interferon gamma (IFN-γ; 30 ng/ml for 30 min) to activate Stat1 or interleukin-6 (IL-6; 30 ng/ml for 30 min) to activate Stat3 (30-31). Cultures were then harvested and proteins extracted using high-salt buffer, as described (Shao et al., 2006). Briefly, extracts were mixed with 2× sodium dodecyl sulfate (SDS) sample buffer (125 mmol/L Tris-HCL pH 6.8; 4% SDS; 20% glycerol; 10% 2-mercaptoethanol) at a 1:1 ratio and heated for 5 minutes at 100° C. Proteins (20 μg) were separated by 7.5% SDS-PAGE and transferred to polyvinylidene fluoride (PVDF) membrane (Millipore, Waltham, Mass.) and immunoblotted. Prestained molecular weight markers (Biorad, Hercules, Calif.) were included in each gel. Membranes were probed serially with antibody against Stat1 pY^701 or Stat3 pY^705 followed by antibody against Stat1 or Stat3 (Transduction labs, Lexington, Ky.) then antibody against β-actin (Abeam, Cambridge, Mass.). Membranes were stripped between antibody probing using Restore™ Western Blot Stripping Buffer (Thermo Fisher Scientific Inc., Waltham, Mass.) per the manufacturer's instructions. Horseradish peroxidase-conjugated goat-anti-mouse IgG was used as the secondary antibody (Invitrogen Carlsbad, Calif.) and the membranes were developed with enhanced chemiluminescence (ECL) detection system (Amersham Life Sciences Inc.; Arlington Heights, Ill.).
While Stat3 contributes to oncogenesis, in part, through inhibition of apoptosis, Stat1 is anti-oncogenic; it mediates the apoptotic effects of interferons and contributes to tumor surveillance (Kaplan et al., 1998; Ramana et al., 2000). Consequently, compounds that target Stat3 while sparing Stat1, leaving its anti-oncogenic functions unopposed, may result in a synergistic anti-tumor effect. […] Thus, five of the six exemplary compounds identified were selective and inhibited ligand-stimulated phosphorylation of Stat3 but not Stat1.
EXP IIC. Ligand-mediated pStat3 and pStat1 inhibition assays. […] Briefly, human hepatocellular carcinoma cells (HepG2) are grown in 6-well plates and pretreated with compounds (0, 0.1, 0.3, 1, 3, 10, 30, 100 μM) for 1 hour then stimulated under optimal conditions with either interleukin-6 (IL-6; 30 ng/ml for 30 min) to activate Stat3 or interferon gamma (IFN-γ, 30 ng/ml for 30 min) to activate Stat1. Cells are harvested and proteins extracted using high-salt buffer, mixed with 2× sodium dodecyl sulfate (SDS) sample buffer (125 mmol/L Tris-HCL pH 6.8; 4% SDS; 20% glycerol; 10% 2-mercaptoethanol) at a 1:1 ratio then heated for 5 minutes at 100° C. Proteins (20 μg) are separated by 7.5% SDS-PAGE and transferred to polyvinylidene fluoride (PVDF) membrane (Millipore, Waltham, Mass.) and immunoblotted. Membranes are probed serially with antibody against Stat1 pY701 or Stat3 pY705 followed by antibody against Stat1 or Stat3 (Transduction labs, Lexington, Ky.) then antibody against β-actin (Abcam, Cambridge, Mass.). Membranes are stripped between antibody probings using Restore™ Western Blot Stripping Buffer (Thermo Fisher Scientific Inc., Waltham, Mass.) per the manufacturer's instructions. […]

Stat3:hSIE complexes = biological target: T2, Stat3:hSIE complexes (Homo sapiens, UniProt P40763); test: Electrophoretic mobility shift assay (EMSA) of Stat3 DNA binding; format: biochemical; conditions: extracts of IL-6-stimulated HepG2 cells, compound 300 μM, 60 minutes at 37° C
T2 construct: endogenous in cells; host or cells: HepG2
T2 sequence (P40763 2-770 limits assumed, one chain of several): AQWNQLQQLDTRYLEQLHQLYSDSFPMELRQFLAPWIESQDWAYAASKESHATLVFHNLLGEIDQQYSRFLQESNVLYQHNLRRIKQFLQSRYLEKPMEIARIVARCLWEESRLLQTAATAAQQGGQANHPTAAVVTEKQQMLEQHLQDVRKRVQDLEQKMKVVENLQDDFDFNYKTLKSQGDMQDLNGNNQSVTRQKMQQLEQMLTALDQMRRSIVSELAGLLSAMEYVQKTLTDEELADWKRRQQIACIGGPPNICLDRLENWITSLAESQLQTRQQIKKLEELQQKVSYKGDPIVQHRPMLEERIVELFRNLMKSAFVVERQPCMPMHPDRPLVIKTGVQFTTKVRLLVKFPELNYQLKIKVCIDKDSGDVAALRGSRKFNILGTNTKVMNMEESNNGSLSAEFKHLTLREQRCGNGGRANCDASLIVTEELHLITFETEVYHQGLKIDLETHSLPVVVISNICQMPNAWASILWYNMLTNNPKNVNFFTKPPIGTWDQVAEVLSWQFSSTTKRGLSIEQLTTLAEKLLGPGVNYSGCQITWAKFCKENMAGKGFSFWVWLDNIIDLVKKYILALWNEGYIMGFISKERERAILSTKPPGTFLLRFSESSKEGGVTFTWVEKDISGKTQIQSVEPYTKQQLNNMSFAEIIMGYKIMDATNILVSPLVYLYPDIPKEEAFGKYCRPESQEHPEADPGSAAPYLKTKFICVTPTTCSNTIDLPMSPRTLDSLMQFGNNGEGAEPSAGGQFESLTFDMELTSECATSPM
Experimental: Electrophoretic mobility shift assays were performed using whole-cell extracts prepared from HepG2 cells without and with stimulation with IL-6 (30 ng/ml) for 30 min. Protein (20 μg) was incubated with radiolabeled duplex oligonucleotide (hSIE) and DMSO without or with the indicated compounds (300 uM) for 60 minutes at 37° C. then separated by PAGE. The gel was dried and autoradiographed; the portion of the gel corresponding to the Stat3-bound hSIE band is shown. Data shown are representative of 2 studies.
Electrophoretic Mobility Shift Assay (EMSA): EMSA was performed using the hSIE radiolabeled duplex oligonucleotide as a probe as described (Tweardy et al., 1995). Briefly, high salt extracts were prepared from HepG2 cells incubated without or with IL-6 (30 ng/ml) for 30 minutes. Protein concentration was determined by Bradford Assay and 20 ug of extract was incubated with compound (300 uM) for 60 minutes at 37° C. […] Gels were dried and autoradiographed.
Once in the nucleus, Stat3 dimers bind to specific DNA elements to activate and, in some instances, repress gene transcription. […] Compounds that bind to the phosphopeptide-binding site of Stat3 might be expected to do the same. […]

breast cancer cell lines = test: Breast cancer cell line apoptosis assay, statements over several cell lines; format: cell-based, human; conditions: five breast cancer cell lines
Experimental: MDA-MB-468 (panel A), MDA-MB-231 (panel B), MDA-MB-435 (panel C), MCF7 (panel D) and MDA-MB-453 (panel E) were seeded in 12-well plates, grown overnight then treated with the indicated compound for 24 hr. Cells were centrifuged and the supernatants assayed for nucleosome levels by ELISA.
Human breast carcinoma cell lines MDA-MB-468, MDA-MB-231, MBA-MD-435 and MCF7 were kindly provided by Dr. Powel H. Brown (Breast Cancer Center, Baylor College of Medicine). Breast cancer cell line, MDA-MB-453 was kindly provided by Dr. Shou Jiang (Breast Cancer Center, Baylor College of Medicine). […] Cells were seeded at 2,500 cells/cm^2 into 12-well plates. […] At 24 hours, treatment was terminated by removing the medium from each well. […] The percent maximum nucleosome level was calculated by dividing the nucleosome level by the maximum nucleosome level achieved in the assay and multiplying by 100.

[1] = tested on: triple negative human breast cancer xenograft; test: Two-day pilot triple-negative human breast cancer xenograft experiment, MSFE measured; format: in vivo, SCID Beige mice; conditions: 250 mcg, two days of treatment, P<0.05
Text: The mice were sacrificed after two days and MSFE measured.
A tumor line derived from a “triple negative” (ER-negative, PgR-negative, and HER-2 negative) human breast cancer biopsy specimen was transplanted into immunocompromised SCID Beige mice. The animals (n=3) received two doses of vehicle control, 2 different doses of Cpd 188 (125 or 250 mcg), a G-quartet oligodeoxynucleotide (GQ-ODN, T40214; GQ-I) previously determined to target Stat3 (Jing et al., 2004) and a control non-specific ODN (GQ-II) each at two doses (125 or 250 mcg). The animals were sacrificed after only two days of treatment, and MSFE determined.

[2] = tested on: breast cancer cells with constitutively activated Stat3; conditions: Schust et al., 2006; cited from earlier work
Stat3 = Stat3 (Homo sapiens, UniProt P40763); conditions: fluorescence polarization, Coleman et al., 2005; read-out: IC50 inhibition of Stat3 binding to pY-peptide; cited from earlier work
Chain of Stat3 (P40763 whole entry): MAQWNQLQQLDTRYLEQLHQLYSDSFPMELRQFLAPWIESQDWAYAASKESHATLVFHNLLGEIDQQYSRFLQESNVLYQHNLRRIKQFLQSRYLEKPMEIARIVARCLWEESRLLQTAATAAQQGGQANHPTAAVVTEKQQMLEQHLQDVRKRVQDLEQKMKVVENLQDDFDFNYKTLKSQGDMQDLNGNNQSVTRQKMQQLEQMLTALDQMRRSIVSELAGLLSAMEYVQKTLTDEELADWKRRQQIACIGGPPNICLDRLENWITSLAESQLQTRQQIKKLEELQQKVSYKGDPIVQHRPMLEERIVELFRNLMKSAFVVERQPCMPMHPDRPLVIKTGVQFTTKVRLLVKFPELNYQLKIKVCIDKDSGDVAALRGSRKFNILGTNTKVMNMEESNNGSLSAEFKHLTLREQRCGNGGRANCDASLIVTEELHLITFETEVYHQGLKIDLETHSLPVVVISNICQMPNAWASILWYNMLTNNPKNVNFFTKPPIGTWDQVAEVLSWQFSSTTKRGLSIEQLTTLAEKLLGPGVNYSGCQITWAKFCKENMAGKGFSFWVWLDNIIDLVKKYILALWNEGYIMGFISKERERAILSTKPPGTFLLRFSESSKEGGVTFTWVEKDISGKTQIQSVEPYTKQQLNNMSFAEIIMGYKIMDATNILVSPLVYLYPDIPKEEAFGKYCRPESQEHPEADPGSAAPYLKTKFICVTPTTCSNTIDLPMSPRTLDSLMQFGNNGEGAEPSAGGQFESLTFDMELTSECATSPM

Compound: O=C(O)c1ccc(C=CC(=O)c2ccc3c(c2)OCCO3)cc1 [Cpd3, 4-[3-(2,3-dihydro-1,4-benzodioxin-6-yl)-3-oxo-1-propen-1-yl]benzoic acid]
- effect on IFN-γ-stimulated Stat1 phosphorylation (Stat1): did not
- effect on Stat3:hSIE band intensity (EMSA) (Stat3:hSIE complexes): reduced the amount of hSIE shifted by half or greater

Compound: CCOc1cc(C=C2C(=O)c3ccccc3C2=O)cc(Cl)c1OCc1cccc(C(=O)O)c1 [Cpd3-2, 3-({2-chloro-4-[(1,3-dioxo-1,3-dihydro-2H-inden-2-ylidene)methyl]-6-ethoxyphenoxy}methyl)benzoic acid]
- effect on IFN-γ-stimulated Stat1 phosphorylation (Stat1): did not
- induction of apoptosis of any of the breast cancer cell lines tested (breast cancer cell lines): neither Cpd3-2 nor Cpd3-7 induced apoptosis

Compound: COC(=O)Cc1c(C)c2ccc(OCc3ccc(C(=O)OC)cc3)c(C)c2oc1=O [Cpd3-7, methyl 4-({[3-(2-methyoxy-2-oxoethyl)-4,8-dimethyl-2-oxo-2H-chromen-7-yl]oxy}methyl)benzoate]
- effect on IFN-γ-stimulated Stat1 phosphorylation (Stat1): did not
- effect on Stat3:hSIE band intensity (EMSA) (Stat3:hSIE complexes): reduced the amount of hSIE shifted by half or greater
- induction of apoptosis of any of the breast cancer cell lines tested (breast cancer cell lines): neither Cpd3-2 nor Cpd3-7 induced apoptosis

Compound: CCN1C(=O)C(=Cc2ccc(-c3ccc(C(=O)O)cc3)o2)SC1=S [Cpd30, 4{5-[(3-ethyl-4-oxo-2-thioxo-1,3-thiazolidin-5-ylidene)methyl]-2-furyl}benzoic acid]
- effect on IFN-γ-stimulated Stat1 phosphorylation (Stat1): did not

Compound: CCN1C(=O)C(=Cc2ccc(-c3cc(C(=O)O)ccc3Cl)o2)C(=O)N(CC)C1=S [Cpd30-12, 4-chloro-3-{5-[(1,3-diethyl-4,6-dioxo-2-thioxotetrahydro-5(2H)-pyrimidinylidene)methyl]-2-furyl}benzoic acid]
- effect on IFN-γ-stimulated Stat1 phosphorylation (Stat1): blocked Stat1 phosphorylation

Compound: O=C(O)CSc1cc(NS(=O)(=O)c2ccc(C(=O)O)cc2)c2ccccc2c1O [Cpd188, 4-[({3-[(carboxymethyl)thio]-4-hydroxy-1-naphthyl}amino)sulfonyl]benzoic acid]
- effect on IFN-γ-stimulated Stat1 phosphorylation (Stat1): did not
- reduction in MSFE compared to control [1]: significant reduction in MSFE

Compound: O=[N+]([O-])c1ccc2c(c1)S(=O)(=O)C=C2 [Stattic]
- concentration range inducing apoptosis / Stat3 inhibitory effects [2]: 5 to 20 µM

Compound: hydrocinnamoyl-Tyr(PO3H2)-Leu-cis-3,4-methanoPro-Gln-NHB
- IC50 (Stat3): 0.125 µM
